Test results taken from US20050107289A1, “Anti-microbial peptides and compositions” (priority 2001, published 2005).
Read-outs that look alike come from different tables or passages of the source. Non-standard residues stand in square brackets, D forms with d. Residues, ends and D or L forms follow the SMILES beside them.

Key:
[1] = tested on: S. aureus (MRSA) ATCC 33591; assay type: cell-based, Staphylococcus aureus; conditions: for MRSA MIC / S. aureus (MRSA) MIC: ATCC 33591; for MRSA (in vitro activity): Table 9
Procedure, shortened: (§1)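 Overnight bacterial cultures, diluted 4000 times to roughly 2.5×10^5 cfu/ml, are added to 2-fold peptide dilution series. Peptide series span approximately 400-2 μg/ml as prepared in DMSO/aqueous sucrose, before mixing with inoculum. Testing follows NCCLS M7-A4 broth dilution, chiefly the microdilution format.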

[2] = tested on: Bacillus cereus ATCC 11778; assay type: cell-based
Description: (§2) The antimicrobial activity of the peptides was determined using a broth dilution assay essentially as descried in the guidelines of the National Committee for […] (NCCLS) [National Committee for Clinical Laboratory Standards. Methods for dilution antimicrobial susceptibility tests for bacteria that grow aerobically. Fourth edition. Approved Standard (1997). Document M7-A4. […] The microdilution method has the advantages of requiring less amount of peptide for each assay and the possibility of multiple simultaneous inoculations and was used in most studies. Several of the strains of bacteria tested are further described in Table 3.
(§3) Preparation of peptide solutions. Stock peptide solutions were prepared in 5% DMSO in aq. sucrose (9%). Determination of peptide concentrations was done by quantitative HPLC analysis using known concentrations of internal standards and/or by measuring UV absorption of tryptophane-containing peptide solutions in H2O (λ=280 εTrp: 5690). Serial 2-fold dilutions were made in the above DMSO/aq. sucrose (9%) mixture with concentrations ranging approximately 400-2 μg/ml and aliquots were dispensed in test tubes (100 μl) for the macrodilution test or in microtiter plates (20 μl) for the microdilution assays.
(§4) Inoculum preparation. Overnight cultures of different microorganisms grown in suitable media were diluted 4000 times to an approximate inoculum size of 2.5×10^5 cfu/ml.
(§5) Macrodilution method. Macrodilution methods were performed using procedures similar to those described in the National Committee for Clinical Laboratory Standards. Methods for dilution antimicrobial susceptibility tests for bacteria that grow aerobically. Fourth edition. Approved Standard (1997). Document M7-A4. (NCCLS,Villanova, Pa., 1997). Two ml aliquots of the above inoculum were dispensed to test tubes containing different peptide solutions.
(§6) Microdilution method. Microdilution methods were performed using procedures similar to those described in the National Committee for Clinical Laboratory Standards. Methods for dilution antimicrobial susceptibility tests for bacteria that grow aerobically. Fourth edition. Approved Standard (1997). Document M7-A4.

[3] = tested on: Streptococcus pneumoniae (ATCC 6301); assay type: cell-based
Description: as §2, §3, §4, §5, §6

[4] = tested on: murine red blood cells; assay: Red blood cell hemolysis; assay type: cell-based, mouse; conditions: for Hemolysis HD50: red cells of murine
Procedure, shortened: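 Hemolysis read as A560 of supernatant, scaled between saline (0%) and 1% Triton X-100 (100%) controls; peptides were serially diluted onto 5% murine red cells in saline plus 10% FBS and incubated 30 min at 37° C.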

[5] = tested on: vancomycin-resistant Enterococus faecalis (VRE)(ATCC 51575); assay type: cell-based, Enterococcus faecalis; design: key to VRE (in vitro activity): peptide concentration in μg/ml (broth dilution assay); conditions: for VRE MIC: ATCC 51575; for VRE (in vitro activity): Table 9
Procedure, shortened: as §1

[6] = tested on: E. coli JM109(DE3); assay type: cell-based, Escherichia coli; conditions: JM109
Description: as §2, §3, §4, §5, §6

[7] = media a: anti-microbial media-3 (AM-3)

Compound	MRSA MIC [1] [µg/mL]	S. aureus (MRSA) MIC [1] [µg/mL]	B. cerius MIC [2] [µg/mL]	S. pneum. MIC [3] [µg/mL]	VRE MIC [5] [µg/mL]	E. coli MIC [6] [µg/mL]	MRSA (in vitro activity) [1, 7]	RBC Hemolysis (HD50) [4]	VRE (in vitro activity) ([5]; media a: AM-3)	Hemolysis HD50 [4] [µg/mL]	MRSA (in vitro activity) ([1]; media b: cation adjusted Meuller Hinton broth (MHBII))	VRE (in vitro activity) ([5]; media c: Brain Heart Infusion (BHI))
CC(C)C[C@H]1NC(=O)[C@H](Cc2c[nH]c3ccccc23)NC(=O)[C@@H](CC(C)C)NC(=O)[C@H](Cc2c[nH]c3ccccc23)NC(=O)[C@@H](CC(=O)O)NC(=O)CNC(=O)[C@@H](CCCNC(=N)N)NC(=O)[C@H](Cc2c[nH]c3ccccc23)NC1=O [SEQ ID NO:7, RGDWLWLW] (cyclo([dR]G[dD]W[dL]W[dL]W))	100	100	> 280	70	100	100	100	100	100	–	–	–
CC(C)C[C@H]1NC(=O)[C@H](Cc2c[nH]c3ccccc23)NC(=O)[C@@H](Cc2c[nH]cn2)NC(=O)[C@H](Cc2c[nH]cn2)NC(=O)[C@@H](CO)NC(=O)[C@H](Cc2c[nH]c3ccccc23)NC(=O)[C@@H](CC(C)C)NC(=O)[C@H](Cc2c[nH]c3ccccc23)NC1=O [SEQ ID NO:15, SHHWLWLW] (cyclo([dS]H[dH]W[dL]W[dL]W))	30	20	11	40	50	100	30	20	50	–	–	–
CC(C)C[C@H]1NC(=O)[C@H](Cc2c[nH]c3ccccc23)NC(=O)[C@@H](Cc2c[nH]cn2)NC(=O)[C@H](CCCCN)NC(=O)[C@@H](CCC(=O)O)NC(=O)[C@H](Cc2c[nH]c3ccccc23)NC(=O)[C@@H](CC(C)C)NC(=O)[C@H](Cc2c[nH]c3ccccc23)NC1=O [SEQ ID NO:16, cyclo-(D-Glu-Lys-D-His-Trp-D-Leu-Trp-D-Leu-Trp)] (cyclo(K[dH]W[dL]W[dL]W[dE]))	100	100	85	50	100	100	100	>100	100	–	–	–
CC(C)C[C@H]1NC(=O)[C@H](Cc2c[nH]c3ccccc23)NC(=O)[C@@H](Cc2c[nH]cn2)NC(=O)[C@H](CCCCN)NC(=O)[C@@H](Cc2c[nH]cn2)NC(=O)[C@H](Cc2c[nH]c3ccccc23)NC(=O)[C@@H](CC(C)C)NC(=O)[C@H](Cc2c[nH]c3ccccc23)NC1=O [SEQ ID NO:21, cyclo-(D-His-Lys-D-His-Trp-D-Leu-Trp-D-Leu-Trp)] (cyclo(K[dH]W[dL]W[dL]W[dH]))	12	12	4	19	16	15	12	25	16	–	–	–
CC(C)C[C@H]1NC(=O)[C@H](Cc2c[nH]c3ccccc23)NC(=O)[C@@H](CCCCN)NC(=O)[C@H](Cc2c[nH]cn2)NC(=O)[C@@H](CCCCN)NC(=O)[C@H](Cc2c[nH]c3ccccc23)NC(=O)[C@@H](CC(C)C)NC(=O)[C@H](Cc2c[nH]c3ccccc23)NC1=O [SEQ ID NO:22, KHKWLWLW] (cyclo([dK]H[dK]W[dL]W[dL]W))	10	10	8	8	10	80	10	30	10	–	–	–
CC(=O)N[C@H](CCCCN)C(=O)N[C@@H](CCCCN)C(=O)N[C@H](CCCCN)C(=O)N[C@@H](Cc1c[nH]c2ccccc12)C(=O)N[C@H](CC(C)C)C(=O)N[C@@H](Cc1c[nH]c2ccccc12)C(=O)N[C@H](CC(C)C)C(=O)N[C@H](Cc1c[nH]c2ccccc12)C(N)=O [SEQ ID NO:25, Ac-KKKWLWLW-CONH2] (Ac-[dK]K[dK]W[dL]W[dL][dW]-NH2)	100	80	75	80	100	20	–	–	–	100	–	–

More lines, main results first:

MRSA MIC [1] [µg/mL]	S. aureus (MRSA) MIC [1] [µg/mL]	B. cerius MIC [2] [µg/mL]	S. pneum. MIC [3] [µg/mL]	VRE MIC [5] [µg/mL]	E. coli MIC [6] [µg/mL]	Compound	MRSA (in vitro activity) [1, 7]	RBC Hemolysis (HD50) [4]	VRE (in vitro activity) ([5]; media a: AM-3)	Hemolysis HD50 [4] [µg/mL]	MRSA (in vitro activity) ([1]; media b: cation adjusted Meuller Hinton broth (MHBII))	VRE (in vitro activity) ([5]; media c: Brain Heart Infusion (BHI))
100	75	15	20	100	100	CC(C)C[C@H]1NC(=O)[C@H](CO)NC(=O)[C@@H](CCCCN)NC(=O)[C@H](Cc2c[nH]c3ccccc23)NC(=O)[C@@H](CC(C)C)NC(=O)[C@H](Cc2c[nH]c3ccccc23)NC1=O [SEQ ID NO:28, cyclo-(D-Lys-Ser-D-Leu-Trp-D-Leu-Trp)] (cyclo(S[dL]W[dL]W[dK]))	–	90	–	–	100	100
40	–	80	80	40	12	CC(C)C[C@@H]1NC(=O)[C@@H](Cc2c[nH]c3ccccc23)NC(=O)[C@H](CCCCN)NC(=O)[C@@H](CCCNC(=N)N)NC(=O)[C@H](CCCCN)NC(=O)[C@@H](Cc2c[nH]c3ccccc23)NC(=O)[C@H](CC(C)C)NC(=O)[C@@H](Cc2c[nH]cn2)NC1=O [SEQ ID NO:101, [KRKWLHLW]] (cyclo(K[dR]K[dW]L[dH]L[dW]))	40	100	40	100	–	–
80	–	195	100	100	40	CC(C)C[C@H]1NC(=O)[C@H](Cc2c[nH]c3ccccc23)NC(=O)[C@@H](CCCCN)NC(=O)[C@H](CCCNC(=N)N)NC(=O)[C@@H](CCCNC(=N)N)NC(=O)[C@H](Cc2c[nH]c3ccccc23)NC(=O)[C@@H](CC(C)C)NC(=O)[C@H](CCC(=O)O)NC1=O [SEQ ID NO:109, [RRKWLELW]] (cyclo([dR]R[dK]W[dL]E[dL]W))	80	100	100	100	–	–
25	–	20	20	40	15	CC(C)C[C@H]1NC(=O)[C@H](Cc2c[nH]c3ccccc23)NC(=O)[C@@H](CCCCN)NC(=O)[C@H](CCCNC(=N)N)NC(=O)[C@@H](CCCNC(=N)N)NC(=O)[C@H](Cc2c[nH]c3ccccc23)NC(=O)[C@@H](CC(C)C)NC(=O)[C@H](Cc2c[nH]cn2)NC1=O [SEQ ID NO:110, [RRKWLHLW]] (cyclo([dR]R[dK]W[dL]H[dL]W))	25	100	40	100	–	–
12	–	23	25	80	6	CC(C)C[C@H]1NC(=O)[C@H](Cc2c[nH]c3ccccc23)NC(=O)[C@@H](CCCCN)NC(=O)[C@H](CCCNC(=N)N)NC(=O)[C@@H](CCCNC(=N)N)NC(=O)[C@H](Cc2c[nH]c3ccccc23)NC(=O)[C@@H](CC(C)C)NC(=O)[C@H](CCCCN)NC1=O [SEQ ID NO:111, [RRKWLKLW]] (cyclo([dR]R[dK]W[dL]K[dL]W))	12	100	80	100	–	–
12	–	13	12	50	12	CC(C)C[C@H]1NC(=O)[C@H](Cc2c[nH]c3ccccc23)NC(=O)[C@@H](CCCCN)NC(=O)[C@H](CCCNC(=N)N)NC(=O)[C@@H](CCCNC(=N)N)NC(=O)[C@H](Cc2c[nH]c3ccccc23)NC(=O)[C@@H](CC(C)C)NC(=O)[C@H](CO)NC1=O [SEQ ID NO:112, [RRKWLSLW]] (cyclo([dR]R[dK]W[dL]S[dL]W))	12	100	50	100	–	–
